# Activity calls are given as the source filed them.
# Key:
# cells [1] = type: functional, cell-based
# cells [2] = type: functional, cell-based; remark: listed apart in the source
# Coagulation factor XII = target: T1, Coagulation factor XII (Homo sapiens, UniProt P00748); type: functional;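 note: activated factor XIIa alpha cleaving a fluorogenic AMC peptide substrate; inhibitor potency from loss of enzyme activity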
# T1 sequence (P00748 whole entry): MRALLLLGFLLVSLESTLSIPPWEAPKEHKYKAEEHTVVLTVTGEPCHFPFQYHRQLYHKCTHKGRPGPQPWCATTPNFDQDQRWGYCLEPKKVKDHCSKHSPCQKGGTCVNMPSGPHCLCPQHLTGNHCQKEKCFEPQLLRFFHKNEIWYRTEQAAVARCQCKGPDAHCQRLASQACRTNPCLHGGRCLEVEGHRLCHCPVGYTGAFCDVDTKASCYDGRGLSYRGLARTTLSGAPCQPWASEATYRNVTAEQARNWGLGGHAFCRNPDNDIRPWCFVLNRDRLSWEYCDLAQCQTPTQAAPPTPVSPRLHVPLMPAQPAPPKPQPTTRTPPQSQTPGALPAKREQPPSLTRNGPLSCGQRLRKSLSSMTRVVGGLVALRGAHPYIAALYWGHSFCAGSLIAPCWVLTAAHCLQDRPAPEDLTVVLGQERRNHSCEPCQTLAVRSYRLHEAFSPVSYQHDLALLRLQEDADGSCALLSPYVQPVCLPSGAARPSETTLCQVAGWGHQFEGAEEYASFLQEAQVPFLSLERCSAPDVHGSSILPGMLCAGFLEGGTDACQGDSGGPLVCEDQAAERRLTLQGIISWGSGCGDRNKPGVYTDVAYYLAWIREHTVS
# [3] = target: T2, Polyadenylate-binding protein 1 (Homo sapiens, UniProt P11940); test: MLLE domain peptide-binding blockers, IC50 – biochemical, fluorescence polarization, FITC-PAM2 peptide, dose response (AID 602259); type: functional; conditions: read-out: IC50_Mean
# T2 sequence (P11940 whole entry, the tested form may be a part): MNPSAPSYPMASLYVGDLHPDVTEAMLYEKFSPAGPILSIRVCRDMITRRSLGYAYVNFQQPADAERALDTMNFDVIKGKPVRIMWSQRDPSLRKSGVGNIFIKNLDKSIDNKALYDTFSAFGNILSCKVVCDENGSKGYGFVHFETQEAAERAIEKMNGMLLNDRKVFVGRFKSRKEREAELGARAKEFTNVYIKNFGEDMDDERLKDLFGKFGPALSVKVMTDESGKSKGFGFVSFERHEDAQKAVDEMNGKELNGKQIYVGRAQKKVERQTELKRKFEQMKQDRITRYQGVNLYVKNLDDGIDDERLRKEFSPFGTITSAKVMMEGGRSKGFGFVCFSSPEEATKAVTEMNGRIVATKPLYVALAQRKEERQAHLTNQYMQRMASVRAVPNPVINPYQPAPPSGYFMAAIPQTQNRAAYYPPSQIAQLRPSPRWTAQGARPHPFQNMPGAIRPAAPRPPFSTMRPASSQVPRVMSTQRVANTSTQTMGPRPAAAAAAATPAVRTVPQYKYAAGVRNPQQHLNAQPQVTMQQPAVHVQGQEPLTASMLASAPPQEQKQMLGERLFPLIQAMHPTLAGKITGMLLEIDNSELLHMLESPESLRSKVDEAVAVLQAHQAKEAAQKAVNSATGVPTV
# [4] = target: T2, Polyadenylate-binding protein 1; test: MLLE binding blockers, Cy5 peptide tracer – biochemical, fluorescence polarization, Cy5-PAM2 peptide, secondary, miRNA deadenylation inhibitor project, dose response (AID 602260); type: functional; conditions: read-out: IC50_Mean
# [5] = off-target signal loss in HeLa-CEM21 co-culture – HeLa F-luc CTL cells, cherry-picked, counter-screen for HIV-1 Env fusion inhibitor project, dose response (AID 652040); type: functional, cell-based;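 note: potency for signal decrease marking cytotoxic or nonspecific inhibition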
# [6] = HIV-1 AD8 envelope cell-cell fusion blockers – cherry-pick, dose response (AID 652062); type: functional, cell-based;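 note: luciferase signal from cell-cell fusion driven by HIV-1 clade B AD8 Env; potency is for inhibitors of fusion seen as a drop in luminescence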
# [7] = target: T3, Ubiquitin-conjugating enzyme E2 N (Homo sapiens, UniProt P61088); type: functional;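 note: Dose-response confirmation in a TR-FRET assay detecting UBC13-driven polyubiquitin chain formation, inhibition measured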
# T3 sequence (P61088 whole entry): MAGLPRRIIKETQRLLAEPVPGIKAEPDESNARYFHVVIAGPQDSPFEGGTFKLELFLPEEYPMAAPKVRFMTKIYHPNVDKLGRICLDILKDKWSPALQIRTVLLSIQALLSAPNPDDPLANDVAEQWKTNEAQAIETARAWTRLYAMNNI
# HEK293 = test: EBV LMP1 TES2 canonical NF-kB signalling blockers – cell-based, HEK293, luciferase, cherry-pick, dose response (AID 588343); type: functional; conditions: Homo sapiens
# [8] = target: T4, Zinc finger protein mex-5 (Caenorhabditis elegans, UniProt Q9XUB2); test: potency of MEX-5 RNA-binding blockers – biochemical, C. elegans, fluorescence polarization, dose response (AID 1960)
# T4 sequence (Q9XUB2 whole entry): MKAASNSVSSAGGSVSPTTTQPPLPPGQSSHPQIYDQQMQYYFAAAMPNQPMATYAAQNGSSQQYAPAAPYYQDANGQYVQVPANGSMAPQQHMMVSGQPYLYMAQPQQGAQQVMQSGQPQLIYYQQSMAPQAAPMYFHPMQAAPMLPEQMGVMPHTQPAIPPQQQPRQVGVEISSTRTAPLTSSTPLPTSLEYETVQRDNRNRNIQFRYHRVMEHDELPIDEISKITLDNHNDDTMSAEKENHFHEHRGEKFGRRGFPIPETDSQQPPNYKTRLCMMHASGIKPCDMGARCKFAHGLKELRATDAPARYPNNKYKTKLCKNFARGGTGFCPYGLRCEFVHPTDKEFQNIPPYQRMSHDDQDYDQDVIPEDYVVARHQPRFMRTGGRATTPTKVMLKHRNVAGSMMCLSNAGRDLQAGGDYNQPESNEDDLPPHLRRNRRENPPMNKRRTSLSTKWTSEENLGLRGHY
# [9] = target: T5, RNA-binding protein pos-1 (Caenorhabditis elegans, UniProt G5EF15); test: disruptors of C. elegans POS-1 RNA interaction – biochemical, fluorescence polarization, dose response (AID 1964);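 note: purified POS-1 fused to maltose binding protein made in E. coli; potency of compounds blocking POS-1 binding to fluorescent RNA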
# T5 sequence (G5EF15 whole entry): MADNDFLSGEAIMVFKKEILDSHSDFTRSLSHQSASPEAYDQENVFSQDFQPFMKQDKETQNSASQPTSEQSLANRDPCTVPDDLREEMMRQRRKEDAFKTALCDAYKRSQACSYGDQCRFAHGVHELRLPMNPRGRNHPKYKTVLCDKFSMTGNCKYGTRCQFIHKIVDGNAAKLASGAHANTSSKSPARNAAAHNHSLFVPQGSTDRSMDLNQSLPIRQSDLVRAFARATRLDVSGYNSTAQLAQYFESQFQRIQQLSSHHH
# [10] = target: T6, Heat shock factor protein 1 (Mus musculus, UniProt P38532); test: enhancement of HSF1-driven luciferase signal – cell-based, NIH3T3, luminescence, dose retest, confirmation (AID 435004); type: functional;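 note: stress induced by proteasome inhibitor MG132 added 30 min after compound; luciferase reporter driven by HSF1 response element in NIH3T3 cells; actives raise luminescence as potentiators of the MG132 stress response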
# T6 sequence (P38532 whole entry): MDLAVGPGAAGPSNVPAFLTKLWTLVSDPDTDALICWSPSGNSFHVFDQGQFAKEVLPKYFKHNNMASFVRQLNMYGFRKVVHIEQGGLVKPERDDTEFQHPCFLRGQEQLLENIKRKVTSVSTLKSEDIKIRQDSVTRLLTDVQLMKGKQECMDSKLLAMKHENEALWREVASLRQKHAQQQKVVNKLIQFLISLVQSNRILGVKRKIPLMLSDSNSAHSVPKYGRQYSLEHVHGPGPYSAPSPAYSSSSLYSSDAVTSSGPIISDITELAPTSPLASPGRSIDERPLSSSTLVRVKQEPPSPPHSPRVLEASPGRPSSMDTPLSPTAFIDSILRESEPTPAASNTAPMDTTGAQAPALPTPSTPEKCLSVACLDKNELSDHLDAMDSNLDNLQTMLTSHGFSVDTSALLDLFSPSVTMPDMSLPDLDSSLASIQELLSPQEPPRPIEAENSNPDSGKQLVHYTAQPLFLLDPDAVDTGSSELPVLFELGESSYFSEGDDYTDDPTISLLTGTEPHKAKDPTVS
# [11] = non-specific 3'UTR reporter inhibition in Clone20-Shn3RL – cell-based, Renilla luciferase, cherry-picked, counter-screen for Shn3 inhibitor project, dose response (AID 624133); type: functional
# [12] = reduction of Shn3 3'UTR-driven luciferase in osteoblasts – cell-based, Clone20 osteoblasts, firefly luciferase, cherry-picked, dose response (AID 624132); type: functional;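 note: firefly luciferase luminescence from reporter carrying the Shn3 3'UTR in osteoblasts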
# [13] = target: Luciferin 4-monooxygenase (Photinus pyralis, UniProt P08659); test: inhibition of purified Photinus pyralis luciferase – biochemical, luminescence, dose response (AID 1891)
# Luciferin 4-monooxygenase, sequence (P08659 whole entry): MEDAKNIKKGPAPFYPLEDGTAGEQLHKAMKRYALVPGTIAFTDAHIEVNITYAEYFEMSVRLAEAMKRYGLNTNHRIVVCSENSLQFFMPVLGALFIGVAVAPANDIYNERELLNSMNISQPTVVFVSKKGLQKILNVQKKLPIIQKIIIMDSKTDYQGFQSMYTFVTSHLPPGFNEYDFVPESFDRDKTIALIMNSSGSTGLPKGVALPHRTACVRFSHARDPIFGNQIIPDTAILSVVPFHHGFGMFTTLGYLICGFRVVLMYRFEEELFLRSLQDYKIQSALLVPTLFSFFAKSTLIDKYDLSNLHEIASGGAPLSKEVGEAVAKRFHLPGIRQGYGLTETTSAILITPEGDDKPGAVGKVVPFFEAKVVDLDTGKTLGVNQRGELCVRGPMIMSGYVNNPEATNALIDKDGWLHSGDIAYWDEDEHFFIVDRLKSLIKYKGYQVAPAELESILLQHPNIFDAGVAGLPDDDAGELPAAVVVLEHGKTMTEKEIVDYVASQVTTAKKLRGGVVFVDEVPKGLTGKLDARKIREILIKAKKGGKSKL
# [14] = Luminescence Cell-Based Dose Confirmation HTS to Identify Inhibitors of Platelet Dense Granule Release. [Related pubchem assays: 1663 (Primary HTS), 1678 (Summary of Project)]; type: functional
# Large T antigen = Large T antigen (Simian virus 40, UniProt P03070); type: functional, Betapolyomavirus macacae;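 note: Confirmatory-stage PubChem screen for compounds that inhibit SV40 T antigen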
# Large T antigen, sequence (P03070 whole entry): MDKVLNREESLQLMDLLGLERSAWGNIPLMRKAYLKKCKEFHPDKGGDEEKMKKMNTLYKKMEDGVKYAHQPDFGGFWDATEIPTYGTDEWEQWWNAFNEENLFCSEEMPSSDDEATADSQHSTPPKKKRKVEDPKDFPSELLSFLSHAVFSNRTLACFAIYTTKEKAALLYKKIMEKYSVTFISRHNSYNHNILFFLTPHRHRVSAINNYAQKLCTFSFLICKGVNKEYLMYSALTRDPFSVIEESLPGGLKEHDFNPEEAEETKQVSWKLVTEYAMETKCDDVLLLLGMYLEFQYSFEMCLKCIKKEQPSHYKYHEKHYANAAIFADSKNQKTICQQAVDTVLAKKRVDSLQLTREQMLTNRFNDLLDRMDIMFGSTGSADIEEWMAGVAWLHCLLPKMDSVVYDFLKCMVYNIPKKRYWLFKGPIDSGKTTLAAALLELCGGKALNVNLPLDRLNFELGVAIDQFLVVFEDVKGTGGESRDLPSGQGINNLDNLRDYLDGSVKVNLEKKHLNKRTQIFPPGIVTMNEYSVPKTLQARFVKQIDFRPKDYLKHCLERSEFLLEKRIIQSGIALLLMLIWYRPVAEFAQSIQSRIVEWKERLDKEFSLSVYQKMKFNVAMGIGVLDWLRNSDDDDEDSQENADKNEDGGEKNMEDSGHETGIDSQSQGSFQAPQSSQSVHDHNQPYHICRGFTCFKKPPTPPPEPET
# [15] = target: T7, Rac GTPase-activating protein 1 (Homo sapiens, UniProt Q9H0H5); test: blockers of MgcRacGAP-driven Rac1 GTP hydrolysis – biochemical, ADP Hunter fluorescence, primary and confirmatory, confirmation (AID 624330); type: functional
# T7 sequence (Q9H0H5 whole entry): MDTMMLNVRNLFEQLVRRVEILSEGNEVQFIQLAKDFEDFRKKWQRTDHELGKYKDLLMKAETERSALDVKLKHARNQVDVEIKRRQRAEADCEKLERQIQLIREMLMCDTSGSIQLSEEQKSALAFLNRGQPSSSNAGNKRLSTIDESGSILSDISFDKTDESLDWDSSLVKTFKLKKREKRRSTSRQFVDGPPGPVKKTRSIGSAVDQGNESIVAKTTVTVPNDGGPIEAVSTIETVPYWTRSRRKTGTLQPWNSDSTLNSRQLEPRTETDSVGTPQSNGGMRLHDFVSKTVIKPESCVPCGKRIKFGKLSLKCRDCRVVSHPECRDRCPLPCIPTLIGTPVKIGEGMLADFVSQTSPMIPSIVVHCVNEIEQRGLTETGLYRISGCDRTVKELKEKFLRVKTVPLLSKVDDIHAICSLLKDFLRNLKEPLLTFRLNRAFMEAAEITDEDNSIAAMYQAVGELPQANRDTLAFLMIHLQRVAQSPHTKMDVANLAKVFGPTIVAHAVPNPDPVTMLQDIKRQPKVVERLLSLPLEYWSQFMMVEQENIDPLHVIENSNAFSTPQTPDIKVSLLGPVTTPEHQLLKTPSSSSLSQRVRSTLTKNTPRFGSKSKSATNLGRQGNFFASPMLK
compound,measurement,setting,value
COCCNC(=O)C(=O)NCC1OCCN1S(=O)(=O)c1cc(F)ccc1F (stereo not given),EC50,cells [1],> 350 µM (not active)
same,EC50,cells [2],> 350 µM (not active)
CC1CN(S(=O)(=O)c2cccc(C(=O)N(CCc3ccccc3)Cc3ccccc3)c2)CC(C)O1 (stereo not given),EC50,cells [1],> 350 µM (not active)
same,EC50,cells [2],> 350 µM (not active)
CC12CC3(C)CC(C)(C1)CC(C(=O)NCCc1ccc(S(N)(=O)=O)cc1)(C2)C3,EC50,cells [1],> 350 µM (not active)
same,EC50,cells [2],> 350 µM (not active)
CC(C)N(Cc1ccccc1)C(S)=NC1CCCCC1,IC50,Coagulation factor XII,> 50 µM (inactive)
CC(=O)Nc1ccc(SCC(=O)NC(=O)c2ccccc2Br)cc1,IC50,[3],> 66 µM (inactive)
same,IC50,[4],> 66 µM (inactive)
Cc1ccc2oc(NC(=O)N3CCOCC3)cc(=O)c2c1,IC50,Coagulation factor XII,> 50 µM (inactive)
Cc1cccc(C)c1NC(=O)CCCSc1nnc(-c2ccc(Cl)cc2)n1-c1ccccc1,AC50,[5],48.8 µM (active)
same,AC50,[6],10.5 µM (active)
O=S(=O)(NC(=S)NC1CCCCC1)c1cccs1,IC50,[3],> 66 µM (inactive)
same,IC50,[4],> 66 µM (inactive)
COc1ccccc1C(N)=S,IC50,[3],> 66 µM (inactive)
same,IC50,[4],> 66 µM (inactive)
O=C(CSc1nc2ccsc2c(=O)n1Cc1ccc(C(=O)O)cc1)NCc1ccco1,IC50,[7],> 20 µM (inactive)
COc1ccc(C(=O)Nc2nnc(SCC(=O)NC3CC3)s2)cc1,AC50,HEK293,4.42 µM (active)
Cc1sc(NC(=O)CSc2nnnn2C2CCCC2)c(C#N)c1C,IC50,Coagulation factor XII,> 50 µM (inactive)
CCCOc1cccc(C2C(C(=O)c3ccco3)=C(O)C(=O)N2c2nnc(C)s2)c1 (stereo not given),EC50,[8],82.7 µM (active)
same,EC50,[9],51.9 µM (active)
Cc1ccc(C2(C)NC(=O)N(CC(=O)Nc3ccccc3N3CCCC3)C2=O)cc1 (stereo not given),EC50,cells [1],> 350 µM (not active)
same,EC50,cells [2],> 350 µM (not active)
COCc1cc(O)nc(SCCS(=O)(=O)c2ccc(Cl)cc2Cl)n1,IC50,[3],> 66 µM (inactive)
same,IC50,[4],> 66 µM (inactive)
same,EC50,[10],> 260 µM (inactive)
CCc1ccc(C(N)=S)cc1,IC50,[3],> 66 µM (inactive)
same,IC50,[4],> 66 µM (inactive)
CCN(CC)C(=O)c1cc2c(=O)c3cc(Cl)ccc3oc2nc1C,EC50,[8],> 300 µM (not active)
same,EC50,[9],> 300 µM (not active)
CC(C)CCC(C(=O)O)C(C)CC(=O)NNC(=O)c1ccco1 (stereo not given),AC50,[11],19.9 µM (active)
same,AC50,[12],> 70 µM (inactive)
O=C1CC(Nc2ccccc2)C(=O)N1Cc1ccccc1 (stereo not given),EC50,cells [1],> 350 µM (not active)
same,EC50,cells [2],> 350 µM (not active)
Oc1nc(CN2CC=C(c3ccccc3)CC2)nc2cc(C(F)(F)F)ccc12,EC50,[13],> 112 µM (not active)
same,AC50,HEK293,> 350 µM (inactive)
same,EC50,[14],> 112 µM (not active)
C=CCn1c(N)c(C(=O)OCC)sc1=S,IC50,[3],> 66 µM (inactive)
same,IC50,[4],> 66 µM (inactive)
Cc1cc(O)c(C(C)C)cc1N=C1CSC(=O)N1,EC50,[8],34.6 µM (active)
same,EC50,[9],38.9 µM (active)
Cc1c(NC(=O)CSc2ccc(Cl)cc2)cccc1-c1nc2cc(Cl)ccc2o1,EC50,[8],> 300 µM (not active)
same,EC50,[9],> 300 µM (not active)
CCC(CO)n1c(SCc2cc(=O)oc3cc(C)ccc23)nc2ccccc2c1=O (stereo not given),IC50,Coagulation factor XII,> 50 µM (inactive)
O=C1NC(=O)N(Cc2ccccc2)C(=O)/C1=C/Nc1ccc(CN2CCOCC2)cc1,EC50,[8],> 300 µM (not active)
same,EC50,[9],> 300 µM (not active)
Cc1ccc(OCC(=O)Nc2nnn(C)n2)c(C)c1,IC50,Coagulation factor XII,> 50 µM (inactive)
CCOC(=O)c1cccc(NC(=O)CSc2nnc(-c3ccoc3C)n2CCOC)c1,IC50,Coagulation factor XII,> 50 µM (inactive)
CCOC(=O)c1[nH]c2ccccc2c1N=C(S)Nc1cccc(C)c1C,IC50,Large T antigen,35.1 µM (active)
same,IC50,[3],> 66 µM (inactive)
same,IC50,[15],95.4 µM (active)
same,IC50,[4],> 66 µM (inactive)
COC(C[C@H](O)C[C@@H](O)[C@H](C)OCc1ccccc1)OC,IC50,Coagulation factor XII,> 50 µM (inactive)
C#CCOCCOCCOCCNc1nc(N2CCN(C(=O)[C@H](CCCN=C(N)N)n3cc(C(N)[C@@H](C)CC)nn3)CC2)nc(N2CCN(C(=O)[C@H](CC(N)=O)n3cc([C@@H](N)CC(N)=O)nn3)CC2)n1 (stereo not given in full),IC50,[7],> 20 µM (inactive)
O=C(CCC(=O)N/N=C/c1ccc(Br)s1)NCc1ccccc1,IC50,Coagulation factor XII,> 50 µM (inactive)
Cc1ccc(C(=O)Nc2cccc(C(=O)N/N=C/c3ccccc3F)c2)cc1,AC50,HEK293,7.43 µM (active)
COc1cc(-c2cc(=O)c3ccc(O)cc3o2)cc(OC)c1OC,IC50,[3],33.7 µM (inactive)
same,IC50,[4],> 66 µM (inactive)
Nc1ncnc2c1ncn2CCN1CCOCC1,EC50,cells [1],> 350 µM (not active)
same,EC50,cells [2],> 350 µM (not active)
